In brackets after ≈: the same amount, converted by molar mass.
Legend:
phosphodiesterase III = test: inhibition of phosphodiesterase III activity; type: biochemical; conditions: at 100 μM
Method: 5. Inhibition of phosphodiesterase III activity
The test is carried out using phosphodiesterase from Boehringer Mannheim (Mannheim, Germany), Order No. 108 243 according to the method of T. SAEKI, I. SAITO, Biochem. Pharm. 46, No. 5, […], pages 833-839.
All numerical values are indicated in % inhibition of the enzyme activity at 100 μM of the corresponding compound of the formula I.

[1] = tested on: isolated guinea pig lung strips, leukotriene D4 (LTD4); test: antagonist of LTD4-induced contraction of isolated guinea pig lung strips; type: cell-based; conditions: Cavia porcellus, read-out: Anticontractile action (lung), LTD4: concentration range corresponding to the IC50 value
Source text: (§1) 4. Activity as an antagonist of the contraction of isolated guinea pig lung strips
(§2) The test carried out is based on the same principle as the test indicated in the pharmacological test 3; however, lung strips are used here.
(§3) Preparation of the organ sections and experimental procedure:
(§4) The guinea pig is sacrificed under laughing gas anaesthesia. The entire pulmonary tract is exposed starting from the trachea. The lobes of the lung are cut in a circular fashion such that 3 mm wide strips are formed. The strips of the upper lobes are divided in order to obtain a total of six approximately equal size strips. The strips are suspended in the organ baths under a preload of 4 g. The nutrient solutions used are modified Krebs Henseleit solutions. When using "Platelet activating factor" (PAF) as an […], the composition of this solution corresponds to that for the agonist SP in "Test 3"; for the agonist LTD4 a Krebs Henseleit solution as in the case of the agonist KCl (Test 3) is used. 95% by volume O2, 5% by volume CO2 is used for bubbling through the bath; the bath temperature is 37° C. The experimental procedure is carried out in a therapeutically cumulative methodology, using the dosage graduations 1, 3, 6 and 10 μg/ml.
(§5) The experimental animals, organ bath, vehicles and manner of administration correspond to that stated in pharmacological test 3.
(§6) All numerical values are indicated in the unit μg/ml and relate to the concentration range of tested compound of the formula I (see example numbers in Table 1) which is necessary in order to cause a contraction which corresponds to the IC50 value.

[2] = tested on: isolated guinea pig trachea, agonist substance P; test: antagonist of substance P-induced contraction of isolated guinea pig trachea; type: cell-based; conditions: Cavia porcellus, individual doses, 37° C., read-out: Anticontractile action (trachea), SP antagonism: concentration range for dilatation corresponding to ED50 range
Source text: (§7) 3. Activity as antagonist of the contraction of isolated guinea pig trachea
(§8) The compounds of the formula I are used as antagonists of the contraction of isolated guinea pig trachea. The agonists employed were PGF2α (Upjohn, Germany), calcium ionophore A23187 (Calbiochem, Bad Soden, Germany), and substance P (American Peptide Comp., USA):
The antagonism is possible on the one hand due to specific receptor antagonists, and on the other hand also due to inhibition of the subsequent signal pathway. Preparations which directly or indirectly increase the intracellular concentration of cyclic nucleotides in particular show spasmolytic properties here.
as §3
(§9) The guinea pig is sacrificed by means of terminal laughing gas anaesthesia. The trachea is exposed along its entire length and cut into 15 individual cartilage rings. 5 rings in each case are tied together to give a chain and fixed in the organ bath under a preload of 3 g. After an equilibration time of 45 minutes, a contraction is produced using the agonist. The antagonist (test preparation) is added cumulatively on the plateau of the maximum. Evaluation is carried out in % force change relative to the contraction maximum. The experimental procedure is carried out at 37° C.; the physiological nutrient solution used is a modified Krebs-Henseleit solution through which is bubbled 95% by volume of O2, 5% by volume of CO2.
(§10) Experimental animals: albino guinea pigs (Hattersheim Animal Breeding Institute, Kastengrund, Germany), weight: 200 to 300 g, sex male or female.
(§11) Vehicle: double-distilled water, ethanol or isopropanol; administration: into the organ bath number of administration: cumulative, in SP individual doses
(§12) All numerical values are indicated in the unit μg/ml and relate to the concentration range of the tested compound of the formula I according to the invention (see example numbers in Table 1) which is necessary in order to cause a dilatation which corresponds to the ED50 range.

[3] = tested on: isolated guinea pig trachea, agonist calcium ionophore A23187; test: antagonist of calcium ionophore A23187-induced contraction of isolated guinea pig trachea; type: cell-based; conditions: Cavia porcellus, 37° C., read-out: Anticontractile action (trachea), Ca ionophore: concentration range for dilatation corresponding to ED50 range
Source text: as §7, §8
b) Calcium ionophore A23187 (Calbiochem, Bad Soden) acts by increased uptake of calcium ions, and an activation of all calcium-dependent signal cascades in the cell. Lipoxygenase inhibitors, in particular, and generally antiinflammatory substances show effects in this model.
as §3, §9, §10, §11, §12

[4] = tested on: isolated guinea pig trachea, agonist PGF2α; test: antagonist of PGF2α-induced contraction of isolated guinea pig trachea; type: cell-based; conditions: Cavia porcellus, 37° C., read-out: Anticontractile action (trachea), PGF2α: concentration range for dilatation corresponding to ED50 range
Source text: as §7, §8
Inhibition of contractions which are induced by this cyclooxygenase product is only possible by competitive antagonism at the receptor or of the subsequent signal pathway.
as §3, §9, §10, §11, §12

[5] = tested on: isolated guinea pig lung strips, Platelet activating factor (PAF); test: antagonist of PAF-induced contraction of isolated guinea pig lung strips; type: cell-based; conditions: Cavia porcellus, read-out: Anticontractile action (lung), PAF: concentration range corresponding to the IC50 value
Source text: as §1, §2, §3, §4, §5, §6

soleus muscle = test: rat muscle function test: muscle weight (atrophy of immobilized extremity); type: in vivo, male Wistar rats; conditions: oral, 1x per day for 3 weeks, as a rule 25 mg/kg, difference ≤25% classified as an effect
Source text: (§13) 1. Activity in the rat muscle function test
(§14) Male Wistar rats (body weight about 300 g) were kept under standard conditions with feed and water ad libitum. The right rear extremity was immobilized by fitting a kind of "shoe" to the animals under short-term anaesthesia. Two ergonomically fitted halves of the "shoe" were cast from a liquid plastic material which is also used for the production of dental prostheses, these were put onto the animal under brief anaesthesia and joined with the aid of a wire. The material is light but hard, so that the animals cannot gnaw the material, and the "shoe" can be opened at any time to examine the condition of the immobilized extremity. The two halves were moreover padded out with chamois leather in order to avoid compressions and possible injuries due to rubbing. The system also has the advantage that the angle of immobilization is standardized in all animals; this would not be possible with a plaster cast. The chosen angle allows the animals to take up a normal sitting position despite the "shoe" and also to carry the body weight using this extremity. Only complete stretching or bending of the leg is impossible.
In spite of this, a significant decrease in the skeletal muscle mass (atrophy) of the immobilized extremity occurred, to be precise up to -35% in comparison with the contralateral nonimmobilized rear extremity. As the soleus muscle was the most severely affected, the changes in muscle weight after administration of preparation shown in Table 1 relate to this muscle. A difference of ≤25% between the right immobilized and left non-immobilized rear extremity was classified as an effect.
(§15) After 3 weeks' immobilization of the right rear extremity and simultaneous oral administration of test preparations (1× per day using a stomach tube; as a rule 25 mg/kg of body weight, in carboxymethylcellulose, the animals were weighed and anaesthetized with pentobarbital (35 mg/kg i.p.). Functional parameters were measured during direct electrical stimulation of a muscle group (gastrocnemius, plantaris and soleus). This muscle group, merely called "muscle" in the following, was exposed at the ankle tendon and tied to a force transducer via the tendon.

[6] = tested on: muscle group (gastrocnemius, plantaris and soleus) of the immobilized right rear extremity; test: rat muscle function test: direct electrical stimulation of muscle group after 3 weeks' immobilization; type: in vivo, male Wistar rats; conditions: oral, 1x per day for 3 weeks, as a rule 25 mg/kg, ≤-12% classified as active; for Force (force under the contraction curve, right/left difference): isometric stimulation, control difference approx. 25%; for Work (performed work, right/left difference): isotonic stimulation, control approx. -25%
Source text: as §13, §14, §15
To determine the contractile force, the muscles were stimulated isometrically, i.e. a preload of 0.5N was applied and the muscle was stimulated by means of a series of electrical pulses, which led to a maximum contraction, every 0.7 sec for 80 msec for a period of 15 min. […] The area under this contraction curve was evaluated and the difference in percent between the right atrophic and left normal muscle compared (force under the contraction curve as difference in percent (Δ%)). The difference in the control group is approximately 25%.
An isotonic muscle stimulation was used to determine the performed work of the muscle over time. In this type of measurement, the shortening of the muscle during contraction is used as a basis. To this end, a preload which corresponds to the body weight was applied to the muscles. A series of stimulation pulses (80 msec) were triggered every 3 sec and the muscle was stimulated for 15 min. The data (contraction force and distance travelled) were converted to the work performed in the unit J using an automated system. The difference in the work performed between the immobilized atrophic and the normal muscle in the control animals was approximately -25%.
Values which are positive indicate that the functional parameters of the immobilized muscle were better than those of the contralateral normal muscle.

[7] = tested on: Endotoxin (LPS) from Salmonella abortus equi; test: effect on endotoxin fatality (LPS-induced septic shock); type: in vivo, female NMRI mice; conditions: 25 mg/kg i.p. at the same time as LPS 60 mg/kg i.p.; 72 hours; vs placebo control
Method: 2. Test for effect on endotoxin fatality
Individual injections of lipopolysaccharide (LPS), from gram-negative bacteria, lead via a series of various symptoms to septic shock, which usually turns out to be fatal. Endotoxin (LPS) from Salmonella abortus equi in a dose of 60 mg/kg i.p. leads to shock and to death with at most 72 h p.a. (the dose of 60 mg/kg corresponds to approximately 1.20 mg of LPS/animal).
The experimental animals used are female NMRI mice from the Hoechst AG/Hattersheim animal breeding unit having a body weight of 22 to 24 g.
The test substances administered intraperitoneally (i.p.) in an administration volume of 10 ml/kg at the same time as the LPS. The number of surviving animals after 72 hours' LPS administration is indicated in comparison to a placebo control. The number of tested animals per group is 5; dose 25 mg/kg.

| SMILES | PDE III Inhibition (phosphodiesterase III) [%] | IC50 [1] [µg/mL] | EC50 [2] [µg/mL] | EC50 [3] [µg/mL] | EC50 [4] [µg/mL] | IC50 [5] [µg/mL] | Muscle weight (right/left difference) (soleus muscle) | Force (force under the contraction curve, right/left difference) [6] | Work (performed work, right/left difference) [6] | Inhibition of mortality [7] [%] |
| --- | --- | --- | --- | --- | --- | --- | --- | --- | --- | --- |
| CCOP(=O)(CCCCn1c(=O)c2c(ncn2Cc2ccccc2)n(C)c1=O)OCC [Example 23, Diethyl [4-(7-benzyl-3-methylxanthin-1-yl)butyl]phosphonate] | 65 | 1 to 3 (≈ 2.23 to 6.69 µM) | 10 to 30 (≈ 22.3 to 66.9 µM) | > 10 | > 10 | 1 to 3 (≈ 2.23 to 6.69 µM) | – | – | – | – |
| CCCn1cnc2c1c(=O)n(CCCCP(=O)(OCC)OCC)c(=O)n2C [Example 32, Diethyl [4-(3-methyl-7-propyl-xanthin-1-yl)butyl]phosphonate] | 65 | 6 to 10 (≈ 15 to 25 µM) | 10 to 30 (≈ 25 to 74.9 µM) | – | – | 6 to 10 (≈ 15 to 25 µM) | 0 Δ % | -9 Δ % | -1 Δ % | – |
| CCOP(=O)(CCCCn1c(=O)c2[nH]cnc2n(C)c1=O)OCC [Example 24, Diethyl [4-(3-methylxanthin-1-yl)-butyl]phosphonate] | – | – | 30 to 60 (≈ 83.7 to 167 µM) | – | > 10 | – | -20 Δ % | +6 Δ % | -5 Δ % | 100 |
| CCOP(=O)(CCCn1c(=O)c2c(ncn2CCOC)n(C)c1=O)OCC [Example 35, Diethyl [3-(7-methoxyethyl-3-methylxanthin-1-yl)propyl]phosphonate] | – | – | 30 to 60 (≈ 74.6 to 149 µM) | > 10 | – | 3 to 6 (≈ 7.46 to 14.9 µM) | – | – | – | – |
| CCCCn1cnc2c1c(=O)n(CCCP(=O)(OCC)OCC)c(=O)n2CCCC [Example 40, Diethyl [3-(3,7-dibutylxanthin-1-yl)propyl]phosphonate] | – | – | – | – | – | – | – | – | – | 100 |
| CCOP(=O)(CCCCn1cnc2c1c(=O)n(CC)c(=O)n2C)OCC [Example 4, Diethyl [4-(1-ethyl-3-methylxanthin-7-yl)butyl]phosphonate] | – | – | 10 to 30 (≈ 25.9 to 77.6 µM) | > 10 | > 10 | 1 to 3 (≈ 2.59 to 7.76 µM) | – | – | – | – |
| CCCn1cnc2c1c(=O)n(CCCP(=O)(OCC)OCC)c(=O)n2C1CC1 [Example 39] | 65 | 3 to 6 (≈ 7.27 to 14.5 µM) | – | – | – | – | – | – | – | 100 |
| CCOP(=O)(CCCCn1c(=O)c2c(ncn2CC)n(C)c1=O)OCC [Example 30, Diethyl [4-(7-ethyl-3-methylxanthin-1-yl)butyl]phosphonate] | – | 6 to 10 (≈ 15.5 to 25.9 µM) | 10 to 30 (≈ 25.9 to 77.6 µM) | 10 (≈ 25.9 µM) | > 10 | 3 to 6 (≈ 7.76 to 15.5 µM) | 0 Δ % | +2 Δ % | +5 Δ % | – |
| CCOP(=O)(CCCn1c(=O)c2c(ncn2CC)n(C)c1=O)OCC [Example 34, Diethyl [3-(7-ethyl-3-methylxanthin-1-yl)propyl]phosphonate] | 82 | – | – | – | – | – | – | -5 Δ % | -11 Δ % | 60 |

Source: patent US5728686A, “Alkylxanthine phosphonates and alkylxanthine phosphine oxides and their use as pharmaceuticals” (Hoechst Aktiengesellschaft, priority 1996, dated 1998)
